Values joined by “and” are separate entries in the source; they are usually repeats but may differ in a detail not shown here. Equal values may be shown once.
How the values were obtained:
[1] = Solubility of 25HC3S in water as function of HPbCD or SBECD concentration at room temperature; assay type: physicochemical; details: for 25HC3S Solubility / Molar of 25HC3S: room temperature
Description: A total of six suspensions of 25HC3S sodium salt were prepared in water containing 0, 50, 100, 200, 250 and 400 mg/mL hydroxypropyl-β-cyclodextrin (HPbCD, hydroxypropyl betadex) or sulfobutyl ether β-cyclodextrin (SBECD, Captisol®). Both cyclodextrins are used in approved pharmaceutical products and are manufactured as Good Manufacturing Practice (GMP) excipients. Each suspension was agitated at room temperature, aliquots were centrifuged, and the supernatant solutions assayed for 25HC3S concentrations by a reverse phase HPLC method. The solubility data of 25HC3S as a function of HPbCD concentrations is in Table 1 and as a function of SBECD concentrations is in Table 2.

[2] = Solubility of 25HC3S in 10 mM sodium phosphate buffer pH 7.6 with HPbCD at 5, 15 and 25°C; assay type: physicochemical
Description: A total of five suspensions of 25HC3S were prepared in 10 mM sodium phosphate buffer at pH 7.6 containing 0, 50, 100, 250 and 400 mg/mL HPbCD. The suspensions were initially sonicated and then stirred. Each suspension (40 mL for the suspension without HPbCD and 20 mL for the remaining suspensions) was then equally divided into 3 vials and stored in 5° C., 15° C. and 25° C./60% relative humidity (RH) stability chambers.
Each suspension was stirred constantly in the stability chambers by a small spin bar and electronic stirrer. At day 1 and day 3, half of each suspension (approximately 6 mL for the sample without HPbCD and 3 mL for the rest of the suspensions with HPbCD) was withdrawn from the vial with a 3 or 5 mL disposable syringe. A syringe filter was then attached to the syringe for filtration of the suspensions. To minimize sample temperature changes during filtration, the syringe and filter were equilibrated at the respective stability chamber temperatures before their use. Approximately 3 mL of the filtrate for the sample without HPbCD and 1 mL of the filtrate for the remaining suspensions in HPbCD were discarded to ensure that the filter membrane was sufficiently saturated with 25HC3S to prevent absorption of the drug from the remaining filtrate. Then approximately 0.5 mL to 1.5 mL of filtrate was collected for HPLC analysis. At day 3, the remaining filtered portions were measured for pH. Reverse phase HPLC was used for measuring the concentration of 25HC3S in the solubility samples.

[3] = system: CLP surgery-induced sepsis model; test: Survival in rodent model of surgically-induced sepsis (cecum ligation puncture); assay type: in vivo, CD rats; details: 30 mg/kg sc within 30 minutes after surgery, end of study (3 days or 72 hours), N=5
Description: The subjects for the study were 10 male CD rats (12-13 weeks of age, 400-450 g).
A solution formulation of 25HC3S sodium salt and its respective vehicle was used for the study. The Vehicle was a solution of 40 mg/mL hydroxypropyl betadex with 10 mM sodium phosphate buffer in 70% (v/v) of 0.9% (w/v) sodium chloride and 30% (v/v) of sterile water. 25HC3S sodium salt was pre-dissolved into the Vehicle solution to result in a drug concentration of 5 mg/mL. The 25HC3S solution was ready-to-use at the start of dosing. Both the vehicle and 25HC3S solution were stored at room temperature. Before dosing, the 25HC3S solution was confirmed to be clear and void of any precipitation. Otherwise, if precipitation was observed, the solution was to be sonicated at room temperature for 10 minutes to dissolve particulates.
The CLP procedure is an established and widely-used approach to investigate the progression and characteristics of clinical sepsis. On the day of surgery, animals were weighed and monitored for their baseline temperature. Animals were anesthetized with isoflurane and depth of anesthesia was checked by toe-pinching. Dipyrone (an analgesic) was given subcutaneously prior to surgery. […]
Rats were monitored for survival for 3 days after CLP surgery and 25HC3S treatment. […]
Animals were monitored for mortality, “clinical signs” and pain level. […]

For `C[C@H](CCCC(C)(C)O)[C@H]1CC[C@H]2[C@@H]3CC=C4C[C@@H](OS(=O)(=O)[O-])CC[C@]4(C)[C@H]3CC[C@]12C.[Na+]` [25HC3S, 5-cholesten-3, 25-diol, 3-sulfate], the “25HC3S Solubility” value ([1]; 50 mg/mL HPbCD in water) was 9.78 mg/mL, the “Molar of 25HC3S” value ([1]; 50 mg/mL HPbCD in water) was 0.01938 Molar and the “25HC3S Solubility” value ([1]; 50 mg/mL SBECD in water) was 6.03 mg/mL. The “Molar of 25HC3S” value ([1]; 50 mg/mL SBECD in water) was 0.01195 Molar, the “25HC3S Solubility” value ([1]; 100 mg/mL HPbCD in water) was 18.44 mg/mL and the “Molar of 25HC3S” value ([1]; 100 mg/mL HPbCD in water) was 0.03654 Molar. For the same molecule, the “25HC3S Solubility” value ([1]; 100 mg/mL SBECD in water) was 9.86 mg/mL, the “Molar of 25HC3S” value ([1]; 100 mg/mL SBECD in water) was 0.01954 Molar and the “25HC3S Solubility” value ([1]; 200 mg/mL HPbCD in water) was 31.97 mg/mL. The “Molar of 25HC3S” value ([1]; 200 mg/mL HPbCD in water) was 0.06334 Molar, the “25HC3S Solubility” value ([1]; 200 mg/mL SBECD in water) was 21.24 mg/mL and the “Molar of 25HC3S” value ([1]; 200 mg/mL SBECD in water) was 0.04208 Molar. The “25HC3S Solubility” value ([1]; 250 mg/mL HPbCD in water) was 42.37 mg/mL, the “Molar of 25HC3S” value ([1]; 250 mg/mL HPbCD in water) was 0.08395 Molar and the “25HC3S Solubility” value ([1]; 400 mg/mL HPbCD in water) was 66 mg/mL and 65.18 mg/mL. For the same molecule, the “Molar of 25HC3S” value ([1]; 400 mg/mL HPbCD in water) was 0.1291 Molar, the “25HC3S Solubility” value ([1]; 400 mg/mL SBECD in water) was 44.76 mg/mL and the “Molar of 25HC3S” value ([1]; 400 mg/mL SBECD in water) was 0.08869 Molar. The “relative amounts of HPbCD needed to solubilize 25HC3S (ratio)” value ([1]; mg/mL basis, water) was 6 to 1, the “25HC3S Solubility” value ([1]; water, 0 mg/mL cyclodextrin) was 0.14 mg/mL and the “Molar of 25HC3S” value ([1]; water, 0 mg/mL cyclodextrin) was 0.00028 Molar. The “pH of Filtrate Day 3” value ([2]; 5°C, HPbCD 0 mg/mL) was 7.62, the “pH of Filtrate Day 3” value ([2]; 5°C, HPbCD 50 mg/mL) was 7.70 and the “Solubility at Day 3” value ([2]; 5°C, HPbCD 50 mg/mL, phosphate buffer pH 7.6) was 9.32 mg/mL. The “pH of Filtrate Day 3” value ([2]; 5°C, HPbCD 100 mg/mL) was 7.80, the “Solubility at Day 3” value ([2]; 5°C, HPbCD 100 mg/mL, phosphate buffer pH 7.6) was 18.31 mg/mL and the “pH of Filtrate Day 3” value ([2]; 5°C, HPbCD 250 mg/mL) was 8.06. The “Solubility at Day 3” value ([2]; 5°C, HPbCD 250 mg/mL, phosphate buffer pH 7.6) was 42.80 mg/mL, the “pH of Filtrate Day 3” value ([2]; 5°C, HPbCD 400 mg/mL) was 8.42 and the “Solubility at Day 3” value ([2]; 5°C, HPbCD 400 mg/mL, phosphate buffer pH 7.6) was 66.89 mg/mL. For the same molecule, the “pH of Filtrate Day 3” value ([2]; 15°C, HPbCD 0 mg/mL) was 7.59, the “pH of Filtrate Day 3” value ([2]; 15°C, HPbCD 50 mg/mL) was 7.77 and the “Solubility at Day 3” value ([2]; 15°C, HPbCD 50 mg/mL, phosphate buffer pH 7.6) was 9.50 mg/mL. For the same molecule, the “pH of Filtrate Day 3” value ([2]; 15°C, HPbCD 100 mg/mL) was 7.98, the “Solubility at Day 3” value ([2]; 15°C, HPbCD 100 mg/mL, phosphate buffer pH 7.6) was 18.51 mg/mL and the “pH of Filtrate Day 3” value ([2]; 15°C, HPbCD 250 mg/mL) was 8.07. For the same molecule, the “Solubility at Day 3” value ([2]; 15°C, HPbCD 250 mg/mL, phosphate buffer pH 7.6) was 43.79 mg/mL, the “pH of Filtrate Day 3” value ([2]; 15°C, HPbCD 400 mg/mL) was 8.26 and the “Solubility at Day 3” value ([2]; 15°C, HPbCD 400 mg/mL, phosphate buffer pH 7.6) was 68.10 mg/mL. The “Solubility at Day 3” value ([2]; 25°C/60% RH, HPbCD 0 mg/mL, phosphate buffer pH 7.6, centrifuged sample) was 0.006^1 mg/mL, the “pH of Filtrate Day 3” value ([2]; 25°C/60% RH, HPbCD 50 mg/mL) was 7.65 and the “Solubility at Day 3” value ([2]; 25°C/60% RH, HPbCD 50 mg/mL, phosphate buffer pH 7.6) was 9.90 mg/mL. For the same molecule, the “Solubility at Day 3” value ([2]; 25°C/60% RH, HPbCD 100 mg/mL, phosphate buffer pH 7.6) was 18.33 mg/mL, the “pH of Filtrate Day 3” value ([2]; 25°C/60% RH, HPbCD 100 mg/mL, supernatant) was 7.672 and the “Solubility at Day 3” value ([2]; 25°C/60% RH, HPbCD 250 mg/mL, phosphate buffer pH 7.6) was 42.37 mg/mL. For the same molecule, the “Solubility at Day 3” value ([2]; 25°C/60% RH, HPbCD 400 mg/mL, phosphate buffer pH 7.6) was 70.80 mg/mL, the “pH of Filtrate Day 3” value ([2]; 25°C/60% RH, HPbCD 400 mg/mL, supernatant) was 8.342 and the “temperature dependence of solubility in the presence of HPbCD” value ([2]; between 5°C and 25°C) was “not temperature dependent”. For the same molecule, the “rats that had died” value [3] was 60%.

From patent US20230047788A1, “COMPOSITIONS COMPRISING 5-CHOLESTEN-3, 25-DIOL, 3-SULFATE (25HC3S) OR PHARMACEUTICALLY ACCEPTABLE SALT THEREOF AND AT LEAST ONE CYCLIC OLIGOSACCHARIDE” (Virginia Commonwealth University, priority 2016, published 2023)
